For test [1], the target named is dopamine transporter (DAT) (Mus musculus, UniProt Q61327). As to the kind of experiment: DAT binding, [125I]RTI-121, mouse striatal membranes. Conditions: for inhibition at 10 µM: read-out: DAT % Inh.
Test [2] deals with vesicular acetylcholine transporter. Conditions: read-out: vesicular acetylcholine transporter Ki; secondary interaction; cited from earlier work.
The target of test [3] is serotonin transporter (SERT) (Mus musculus, UniProt Q60857). As to the kind of experiment: SERT binding, [3H]paroxetine, mouse whole brain membranes. Conditions: ratio of DAT and SERT Ki.
serotonin transporter (SERT), sequence (Q60857 whole entry): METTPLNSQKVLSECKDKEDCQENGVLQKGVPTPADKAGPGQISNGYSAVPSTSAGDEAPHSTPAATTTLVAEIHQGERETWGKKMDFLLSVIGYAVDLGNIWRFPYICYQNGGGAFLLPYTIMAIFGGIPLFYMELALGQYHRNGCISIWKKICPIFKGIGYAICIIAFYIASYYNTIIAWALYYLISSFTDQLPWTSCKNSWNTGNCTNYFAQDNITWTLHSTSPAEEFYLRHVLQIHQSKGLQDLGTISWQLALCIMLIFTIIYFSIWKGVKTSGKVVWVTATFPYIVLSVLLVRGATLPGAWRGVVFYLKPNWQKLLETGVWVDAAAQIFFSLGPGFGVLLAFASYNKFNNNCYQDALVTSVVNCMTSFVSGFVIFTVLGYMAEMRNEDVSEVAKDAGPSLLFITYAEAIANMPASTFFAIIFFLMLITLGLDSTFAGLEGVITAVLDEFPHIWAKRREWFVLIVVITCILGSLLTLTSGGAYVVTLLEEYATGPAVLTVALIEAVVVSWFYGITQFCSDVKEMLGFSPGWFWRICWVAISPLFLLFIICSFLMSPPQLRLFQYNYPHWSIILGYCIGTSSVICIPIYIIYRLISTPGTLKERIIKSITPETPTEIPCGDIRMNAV
The subject of test [4] is norepinephrine transporter. The following applies: cited from earlier work.
Test [5] has as its target σ1 receptors. Conditions: read-out: apparent affinity for σ1 receptors; more recent determination; cited from earlier work.

dopamine transporter (DAT), sequence (Q61327 whole entry): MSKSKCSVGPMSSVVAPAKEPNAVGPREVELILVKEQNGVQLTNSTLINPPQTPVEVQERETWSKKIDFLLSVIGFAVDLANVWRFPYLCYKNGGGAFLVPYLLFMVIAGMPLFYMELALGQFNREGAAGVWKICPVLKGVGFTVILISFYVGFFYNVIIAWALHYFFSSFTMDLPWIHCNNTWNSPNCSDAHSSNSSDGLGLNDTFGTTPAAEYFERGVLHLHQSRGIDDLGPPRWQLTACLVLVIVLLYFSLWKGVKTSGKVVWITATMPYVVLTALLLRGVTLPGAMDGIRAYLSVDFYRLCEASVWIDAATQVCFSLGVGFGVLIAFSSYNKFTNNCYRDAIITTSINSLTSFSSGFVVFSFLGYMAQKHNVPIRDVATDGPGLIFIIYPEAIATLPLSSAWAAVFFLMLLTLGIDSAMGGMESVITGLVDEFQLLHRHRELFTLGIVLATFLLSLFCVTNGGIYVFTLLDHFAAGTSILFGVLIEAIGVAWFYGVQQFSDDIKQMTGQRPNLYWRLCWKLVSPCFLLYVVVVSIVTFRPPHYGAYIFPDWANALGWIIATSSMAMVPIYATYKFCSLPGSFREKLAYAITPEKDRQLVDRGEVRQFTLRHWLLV

For the molecule `c1ccc(CCCN2CCN(CCc3ccc4c(c3)OCO4)CC2)cc1` [compound 7, 1-(3,4-methylenedioxyphenethyl)-4-(3-phenylpropyl)piperazine], the Ki in test [1] was around 2000 nM.
The same measure, in the same setting: then `CCCOc1ccc(CCN2CCN(CCCc3ccccc3)CC2)cc1OC` [compound 1, 1-(3-methoxy-4-propoxyphenethyl)-4-(3-phenylpropyl)piperazine], with around 2000 nM.
As to `COc1ccc(CCN2CCN(CCCc3ccccc3)CC2)cc1OC` [SA4503, 1-[2-(3,4-dimethoxyphenyl)ethyl]-4-(3-phenylpropyl)piperazine], the Ki in test [2] is 50 nM. Also, the “higher affinity for SERT over DAT” value in test [3] is reported as 16 fold. For the same molecule, in test [1], the Ki amounted to 12700 ± 832 nM and the inhibition at 10 µM amounted to 23%.
As to `Fc1ccc(C(OCCN2CCN(CCCc3ccccc3)CC2)c2ccc(F)cc2)cc1` [GBR 12909], in test [4], the “affinity for the norepinephrine transporter” value is given as above 1000 nM. Moreover, in test [5], the Ki is 50.8 nM.
`COc1cc(CCN2CCN(CCCc3ccccc3)CC2)ccc1OCCF` [FE-SA4503]: the inhibition at 10 µM in test [1] was 19%.
`COc1cc(CCN2CCN(CCCc3ccccc3)CC2)ccc1OCc1ccccc1` [compound 4, 1-(4-(benzyloxy)-3-methoxyphenethyl)-4-(3-phenylpropyl)piperazine]: the “higher DAT affinity than SA4503” value in test [1] (relative to parent SA4503) is “over 100 fold”.

The record behind these values is PMC4274187 (Bioorganic & medicinal chemistry, 2014).
